According to paper PMC3119473 (PLoS ONE, 2011):
Entries after “also recorded” stand apart in the source; their conditions may differ. One block for each molecule: values may come before it. Square brackets hold non-standard residues; d marks the D form. Ends that are not written are not given here. fluorescein = fluorescein, N-terminal label; Lys(Me3) = C[N+](C)(C)CCCC[C@H](N)C(=O)O; Lys(Me2) = CN(C)CCCC[C@H](N)C(=O)O

What was measured:
[1] = molecular target: T1, PWWP domain of human BRPF2 (residues 925–1049) (Homo sapiens, UniProt O95696); test: Fluorescence polarization binding of histone peptides to BRPF2 PWWP domain; settings: N-terminally fluorescein-labeled peptide 40 nM, PWWP domain titrated, 20 mM PIPES pH 6.5, 50 mM NaCl, 0.01% Tween-20, Very weak = binding too weak to be fitted reliably
T1 construct: BRPF2 (residues 925–1049); His-tag (cleaved yes); made in house; host or cells: Escherichia coli BL21 (DE3)-V2R-pRARE2
T1 sequence (O95696 925-1049): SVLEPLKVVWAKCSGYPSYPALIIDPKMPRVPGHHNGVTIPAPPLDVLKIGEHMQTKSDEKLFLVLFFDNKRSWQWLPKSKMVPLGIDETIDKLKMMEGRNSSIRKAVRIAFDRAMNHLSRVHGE
Experimental: (§1) DNA fragment encoding the PWWP domain of human BRPF1 (residues 1085–1213), BRPF2 (residues 925–1049), BRPF3 (residues 1056–1195), HDGF2 (residues 1–93), DNMT3A (residues 278–427), DNMT3B (residues 206–355), MUM1 (residues 406–539) WHSC1 (residues 208–368) and WHSC1L1 (residues 247–402) were amplified by PCR and sub-cloned into pET28-MHL vector (Genbank accession number: EF456735) and transformed into Escherichia coli BL21 (DE3)-V2R-pRARE2. The cells were grown in Terrific Broth and the protein was over-expressed by addition of 1 mM isopropyl-1-thio-D-galactopyranoside (IPTG) and incubated overnight at 15°C. Harvested cells were resuspended in 50 mM HEPES, pH 7.4, supplemented with 500 mM NaCl, 2 mM β-mercaptoethanol, 5% glycerol, 0.1% CHAPS. The cells were lysed by passing through a microfluidizer (Microfluidics Corporation) at 20,000 psi. After clarification of the crude extract by high-speed centrifugation, the lysate was loaded onto a 5 ml HiTrap chelating column (GE Healthcare), charged with Ni^2+. The column was washed with 10 column volumes of 20 mM HEPES buffer, pH 7.4, containing 500 mM NaCl, 50 mM imidazole and 5% glycerol, the protein was eluted with 20 mM HEPES buffer, pH 7.4, 500 mM NaCl, 250 mM imidazole, 5% glycerol. The protein was dialyzed against buffer containing 20 mM HEPES, pH 7.4, 500 mM NaCl and 5% glyceral. […]

[2] = molecular target: T2, N-terminal PWWP domain of human WHSC1L1 (residues 247–402) (Homo sapiens, UniProt Q9BZ95); test: Fluorescence polarization binding of histone peptides to WHSC1L1 N-terminal PWWP domain; settings: N-terminal PWWP domain only, N-terminally fluorescein-labeled peptide 40 nM, PWWP domain titrated, 20 mM PIPES pH 6.5, 50 mM NaCl, 0.01% Tween-20, Very weak = binding too weak to be fitted reliably
T2 construct: WHSC1L1 (residues 247–402); His-tag (cleaved yes); made in house; host or cells: Escherichia coli BL21 (DE3)-V2R-pRARE2
T2 sequence (Q9BZ95 247-402): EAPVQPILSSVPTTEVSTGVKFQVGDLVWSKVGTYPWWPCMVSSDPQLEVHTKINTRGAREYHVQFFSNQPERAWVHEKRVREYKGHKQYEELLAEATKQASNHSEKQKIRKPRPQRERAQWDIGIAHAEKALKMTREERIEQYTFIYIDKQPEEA
Experimental: as §1, with “glycerol.” for “glycerol. The protein was dialyzed against buffer containing 20 mM HEPES, pH 7.4, 500 mM NaCl and 5% glyceral.”
Fluorescence polarization assays were performed in 384-well plates, using the Synergy 2 microplate reader from BioTek as described in [43]. […]

[3] = molecular target: T3, PWWP domain of human HDGF2 (residues 1–93) (Homo sapiens, UniProt Q7Z4V5); test: Fluorescence polarization binding of histone peptides to HDGF2 PWWP domain; settings: N-terminally fluorescein-labeled peptide 40 nM, PWWP domain titrated, 20 mM PIPES pH 6.5, 50 mM NaCl, 0.01% Tween-20, Very weak = binding too weak to be fitted reliably
T3 construct: HDGF2 (residues 1–93); His-tag (cleaved yes); made in house; host or cells: Escherichia coli BL21 (DE3)-V2R-pRARE2
T3 sequence (Q7Z4V5 1-93): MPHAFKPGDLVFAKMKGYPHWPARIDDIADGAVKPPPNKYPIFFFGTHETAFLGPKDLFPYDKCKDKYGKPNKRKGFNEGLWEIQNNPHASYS
Experimental: DNA fragment encoding the PWWP domain of human BRPF1 (residues 1085–1213), BRPF2 (residues 925–1049), BRPF3 (residues 1056–1195), HDGF2 (residues 1–93), DNMT3A (residues 278–427), DNMT3B (residues 206–355), MUM1 (residues 406–539) WHSC1 (residues 208–368) and WHSC1L1 (residues 247–402) were amplified by PCR and sub-cloned into pET28-MHL vector (Genbank accession number: EF456735) and transformed into Escherichia coli BL21 (DE3)-V2R-pRARE2. The cells were grown in Terrific Broth and the protein was over-expressed by addition of 1 mM isopropyl-1-thio-D-galactopyranoside (IPTG) and incubated overnight at 15°C. Harvested cells were resuspended in 50 mM HEPES, pH 7.4, supplemented with 500 mM NaCl, 2 mM β-mercaptoethanol, 5% glycerol, 0.1% CHAPS. The cells were lysed by passing through a microfluidizer (Microfluidics Corporation) at 20,000 psi. After clarification of the crude extract by high-speed centrifugation, the lysate was loaded onto a 5 ml HiTrap chelating column (GE Healthcare), charged with Ni^2+. The column was washed with 10 column volumes of 20 mM HEPES buffer, pH 7.4, containing 500 mM NaCl, 50 mM imidazole and 5% glycerol, the protein was eluted with 20 mM HEPES buffer, pH 7.4, 500 mM NaCl, 250 mM imidazole, 5% glycerol. The protein was dialyzed against buffer containing 20 mM HEPES, pH 7.4, 500 mM NaCl and 5% glyceral. TEV protease was added to combined fractions containing target proteins to remove the His-tag. All the proteins except DNMT3A were further purified to homogeneity by ion-exchange chromatography on Source 30S column (10×10) (GE Healthcare), equilibrated with 20 mM PIPES buffer, pH 6.5, and eluted with linear gradient of NaCl up to 500 mM concentration (20CV). For DNMT3A, Source 30Q column was used for ion exchange chromatography. The ^15N-labeled proteins for NMR titration were purified in the same protocols as native ones except that bacteria were grew in M9 minimal medium containing 1 g/L ^15(NH4)2SO4 as the sole nitrogen source. The labeled proteins were concentrated to 0.15–0.3 mM for NMR titration.
Fluorescence polarization assays were performed in 384-well plates, using the Synergy 2 microplate reader from BioTek as described in [43]. All the peptides were synthesized and purified by Tufts University Core Services (Boston, MA, U.S.A.), with the N-terminus labeled with fluorescein. Binding assays were performed in a 10 µl volume at a constant labeled peptide concentration (40 nM), by titrating the PWWP domains (at concentrations ranging from low to high micromolar) into 20 mM PIPES buffer (pH 6.5), containing 50 mM NaCl, 0.01% Tween-20. The data points were fitted to ligand binding function using Sigma Plot software to determine the K d values.

[4] = molecular target: T4, PWWP domain of human BRPF1 (residues 1085–1213) (Homo sapiens, UniProt P55201); test: Fluorescence polarization binding of histone peptides to BRPF1 PWWP domain; settings: N-terminally fluorescein-labeled peptide 40 nM, PWWP domain titrated, 20 mM PIPES pH 6.5, 50 mM NaCl, 0.01% Tween-20, Very weak = binding too weak to be fitted reliably
T4 construct: PWWP domain of human BRPF1 (residues 1085–1213); His-tag (cleaved yes); made in house; host or cells: Escherichia coli BL21 (DE3)-V2R-pRARE2
T4 sequence (P55201 1085-1213): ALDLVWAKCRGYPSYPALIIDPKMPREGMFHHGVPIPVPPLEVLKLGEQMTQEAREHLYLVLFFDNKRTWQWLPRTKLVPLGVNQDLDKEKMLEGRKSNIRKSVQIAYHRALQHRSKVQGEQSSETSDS
Experimental: as §1

[5] = molecular target: T5, PWWP domain of human HDGF2 (Hepatoma-derived growth factor 2), residues 1-93 (human, UniProt Q7Z4V5 1-93); test: fluorescence polarisation; 384-well plates, 10 µl; N-terminal fluorescein peptide constant at 40 nM, PWWP domain titrated (low to high micromolar); 20 mM PIPES pH 6.5, 50 mM NaCl, 0.01% Tween-20; settings: both partners purified
T5 construct: PWWP domain of human HDGF2, residues 1-93; Cloned into pET28-MHL (vector GenBank EF456735); also called HGDF2; source: E. coli BL21 (DE3)-V2R-pRARE2, purified (Ni2+ chelating column, TEV cleavage, Source 30S ion exchange)
T5 sequence (Q7Z4V5 1-93): as the sequence (Q7Z4V5 1-93) above

[6] = molecular target: T6, PWWP domain of human MUM1 (melanoma associated antigen (mutated) 1), residues 406-539 (human, UniProt Q2TAK8 406-539); test: as above; settings: both partners purified
T6 construct: PWWP domain of human MUM1, residues 406-539; Cloned into pET28-MHL (vector GenBank EF456735); source: E. coli BL21 (DE3)-V2R-pRARE2, purified (Ni2+ chelating column, TEV cleavage, Source 30S ion exchange)
T6 sequence (Q2TAK8 406-539, stated change not applied): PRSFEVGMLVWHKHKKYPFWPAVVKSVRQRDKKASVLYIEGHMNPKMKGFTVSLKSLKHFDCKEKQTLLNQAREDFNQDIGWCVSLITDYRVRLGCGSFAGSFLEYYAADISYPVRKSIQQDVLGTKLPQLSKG

Molecule: CC(C)[C@H](NC(=O)CNC(=O)CNC(=O)[C@@H](NC(=O)[C@H](C)NC(=O)[C@@H]1CCCN1)[C@@H](C)O)C(=O)N[C@@H](CCCCN(C)C)C(=O)N[C@@H](CCCCN)C(=O)N1CCC[C@H]1C(=O)N[C@@H](Cc1c[nH]cn1)C(=O)N[C@@H](CCCNC(=N)N)C(=O)N[C@@H](Cc1ccc(O)cc1)C(=O)O [Peptide H3K36me2]
BRPF2 Kd(mM) [1]: Very weak
WHSC1L1_N Kd (mM) [2]: Very weak

HDGF2 Kd(mM) [3]: weakly; also recorded: Very weak
WHSC1L1_N Kd (mM) [2]: Very weak
Molecule: CC(C)[C@H](NC(=O)CNC(=O)CNC(=O)[C@@H](NC(=O)[C@H](C)NC(=O)[C@@H]1CCCN1)[C@@H](C)O)C(=O)N[C@@H](CCCC[N+](C)(C)C)C(=O)N[C@@H](CCCCN)C(=O)N1CCC[C@H]1C(=O)N[C@@H](Cc1c[nH]cn1)C(=O)N[C@@H](CCCNC(=N)N)C(=O)N[C@@H](Cc1ccc(O)cc1)C(=O)O [Peptide H3K36me3]

HDGF2 Kd(mM) [3]: Very weak
Molecule: CC[C@H](C)[C@H](NC(=O)[C@@H](N)CCC(=O)O)C(=O)N[C@@H](C)C(=O)N[C@@H](CCC(N)=O)C(=O)N[C@@H](CC(=O)O)C(=O)N[C@@H](Cc1ccccc1)C(=O)N[C@@H](CCCCN(C)C)C(=O)N[C@H](C(=O)N[C@@H](CC(=O)O)C(=O)N[C@@H](CC(C)C)C(=O)N[C@@H](CCCNC(=N)N)C(=O)N[C@@H](Cc1ccc(O)cc1)C(=O)O)[C@@H](C)O [Peptide H3K79me2]

Molecule: CC[C@H](C)[C@H](NC(=O)[C@@H](N)CCC(=O)O)C(=O)N[C@@H](C)C(=O)N[C@@H](CCC(N)=O)C(=O)N[C@@H](CC(=O)O)C(=O)N[C@@H](Cc1ccccc1)C(=O)N[C@@H](CCCC[N+](C)(C)C)C(=O)N[C@H](C(=O)N[C@@H](CC(=O)O)C(=O)N[C@@H](CC(C)C)C(=O)N[C@@H](CCCNC(=N)N)C(=O)N[C@@H](Cc1ccc(O)cc1)C(=O)O)[C@@H](C)O [Peptide H3K79me3]
HDGF2 Kd(mM) [3]: weakly; also recorded: very weak binding affinity

BRPF1 Kd(mM) [4]: Very weak
HDGF2 Kd(mM) [3]: Very weak
Molecule: AKRHRK(me)2VLRDN [Peptide H4K20me2, histone H4 peptide dimethylated at K20; N-terminus fluorescein-labeled in FP assay]

BRPF1 Kd(mM) [4]: Very weak
HDGF2 Kd(mM) [3]: weakly; also recorded: Very weak
Molecule: AKRHRK(me)3VLRDN [Peptide H4K20me3, histone H4 peptide trimethylated at K20; N-terminus fluorescein-labeled in FP assay]

Kd [5]: 1000 ± 200 µM
Kd [6]: 400 ± 100 µM
B1: H3K36me2 peptide PATGGVK(me)2KPHRY, N-terminal fluorescein (peptide)
peptide: fluorescein-PATGGV[Lys(Me2)]KPHRY
notes: histone H3, stretch around K36; source: synthetic peptide (Tufts University Core Services)

Kd [6]: 100 ± 70 µM
B2: H3K36me3 peptide PATGGVK(me)3KPHRY, N-terminal fluorescein (peptide)
peptide: fluorescein-PATGGV[Lys(Me3)]KPHRY
notes: as for B1
